Results reported in ChEMBL document CHEMBL3217517, “Alkynylation of N-(3-iodopyridin-2-yl)sulfonamide under Pd/CCu catalysis: a direct one pot synthesis of 7-azaindoles and their pharmacological evaluation as potential inhibitors of sirtuins” (Medchemcomm, 2011).

Key:
[1] = target: NAD-dependent histone deacetylase SIR2 (Saccharomyces cerevisiae S288c) (UniProt P06700); experiment: Inhibition of Ura3 gene expressing yeast NAD-dependent HDAC activity of Sir2 assessed as growth inhibition at 50 uM after 24 to 48 hrs by reporter silencing assay in presence of 5-fluoro orotic acid
[2] = target: NAD-dependent histone deacetylase SIR2 (Saccharomyces cerevisiae S288c, UniProt P06700); experiment: Inhibition of Ura3 gene expressing yeast NAD-dependent HDAC activity of Sir2 assessed as growth inhibition after 24 to 48 hrs by reporter silencing assay in absence of 5-fluoro orotic acid
[3] = target: NAD-dependent histone deacetylase SIR2 (Saccharomyces cerevisiae S288c) (UniProt P06700); experiment: Inhibition of Ura3 gene expressing yeast NAD-dependent HDAC activity of Sir2 assessed as growth inhibition after 24 to 48 hrs by reporter silencing assay in presence of 5-fluoro orotic acid

NAD-dependent histone deacetylase SIR2, sequence (P06700 whole entry): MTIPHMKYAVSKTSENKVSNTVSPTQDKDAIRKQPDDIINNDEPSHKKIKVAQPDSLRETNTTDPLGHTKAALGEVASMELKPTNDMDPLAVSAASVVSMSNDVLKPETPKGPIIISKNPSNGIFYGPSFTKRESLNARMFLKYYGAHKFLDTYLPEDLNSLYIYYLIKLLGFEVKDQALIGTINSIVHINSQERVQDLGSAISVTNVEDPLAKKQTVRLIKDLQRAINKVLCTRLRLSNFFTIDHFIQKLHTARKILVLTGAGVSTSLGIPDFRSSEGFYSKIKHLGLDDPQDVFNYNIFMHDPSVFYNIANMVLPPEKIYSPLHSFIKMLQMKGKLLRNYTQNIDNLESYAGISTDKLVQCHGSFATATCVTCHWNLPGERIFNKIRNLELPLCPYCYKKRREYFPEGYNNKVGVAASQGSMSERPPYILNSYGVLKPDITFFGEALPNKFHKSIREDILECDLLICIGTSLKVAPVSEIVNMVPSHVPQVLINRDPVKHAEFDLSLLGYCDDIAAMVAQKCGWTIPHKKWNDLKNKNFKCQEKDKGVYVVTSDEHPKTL
NAD-dependent histone deacetylase SIR2 (Saccharomyces cerevisiae S288c), sequence (P06700 whole entry): as above

| inhibition [1] | inhibition [3] | SMILES | Activity [2] |
| --- | --- | --- | --- |
| 10% |  | CCCCCc1cc2cccnc2n1S(=O)(=O)c1ccccc1 |  |
| 12% |  | O=S(=O)(c1ccccc1)n1c(CCCCl)cc2cccnc21 |  |
| 15% |  | O=S(=O)(c1ccccc1)n1c(CCO)cc2cccnc21 |  |
| 10% |  | N#CCCCc1cc2cccnc2n1S(=O)(=O)c1ccccc1 |  |

More lines, now with the values behind:

| SMILES | inhibition [1] | inhibition [3] | Activity [2] |
| --- | --- | --- | --- |
| CC(O)c1cc2cccnc2n1S(=O)(=O)c1ccccc1 (configuration not stated) | 30% |  |  |
| O=S(=O)(c1ccccc1)n1c(-c2ccccc2)cc2cccnc21 | 37% |  |  |
| CC(C)(C)c1cc2cccnc2n1S(=O)(=O)c1ccccc1 | 42% |  | Non-toxic |
| CS(=O)(=O)n1c(-c2ccccc2)cc2cccnc21 | 40% | Dose-dependent effect | Non-toxic |
| O=S(=O)(c1ccccc1)n1c(CO)cc2cccnc21 |  |  | Non-toxic |
